Data from patent US8637510B2, “Morpholinothiazoles as alpha 7 positive allosteric modulators” (Janssen Pharmaceutica NV, priority 2009, dated 2014).

Legend:
human alpha 7-wt nAChR = biological target: T1, human alpha 7-wt nAChR (Homo sapiens, UniProt P36544); test: Ca2+ flux imaging (FDSS) (Protocol B); type: cell-based; conditions: for EC50: potentiation of 100 μM choline, compounds 0.01 μM to 30 μM, read-out: a7-PAM-G_[33]_pEC50 pEC50 (converted); for Emax: read-out: a7-PAM-G_[33]_Eff_Curve_FI % Efficacy
T1 construct: expressed in transfected cells
T1 sequence (P36544 23-502): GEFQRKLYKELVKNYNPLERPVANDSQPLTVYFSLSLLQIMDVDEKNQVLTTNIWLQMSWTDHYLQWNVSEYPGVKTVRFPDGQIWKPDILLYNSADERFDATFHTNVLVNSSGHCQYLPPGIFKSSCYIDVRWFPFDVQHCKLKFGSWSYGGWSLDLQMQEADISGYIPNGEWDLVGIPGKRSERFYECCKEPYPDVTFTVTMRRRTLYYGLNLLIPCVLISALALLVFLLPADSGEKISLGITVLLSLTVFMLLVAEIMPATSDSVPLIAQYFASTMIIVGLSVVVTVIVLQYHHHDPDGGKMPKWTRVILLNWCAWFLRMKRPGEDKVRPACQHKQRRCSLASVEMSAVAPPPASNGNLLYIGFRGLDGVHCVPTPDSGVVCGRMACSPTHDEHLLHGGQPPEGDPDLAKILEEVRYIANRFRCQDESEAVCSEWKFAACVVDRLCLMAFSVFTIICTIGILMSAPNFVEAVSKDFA
In short: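 Fluo-4AM-loaded cells expressing human α7-wt nAChR, in HBSS with 10 mM HEPES, 5 mM CaCl2, 0.1% BSA, received compound (0.01–30 μM), typically 10 min before 100 μM choline, with calcium flux read in real time. Potentiation is relative to choline alone (100%); EC50 from sigmoidal curves.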

[1] = efficacy of 100 μM choline defined as 100% in the absence of a PAM

Compound	EC50 (human alpha 7-wt nAChR)	melting point	Emax (human alpha 7-wt nAChR; [1])	a7-PAM-G_[33]_Eff_Curve_FI % Efficacy (human alpha 7-wt nAChR; [1])
Cc1cc(-c2sc(N3CC(C)OC(C)C3)nc2CNC(=O)c2ccc(Cl)cc2)cc(C)n1 (racemic) [Compound 58, 4-chloro-N-[[2-[2,6-dimethyl-4-morpholinyl]-5-(2,6-dimethyl-4-pyridinyl)-4-thiazolyl]methyl]-benzamide]	295 nM	184 °C		
Cc1cc(-c2sc(N3CC(C)OC(C)C3)nc2CNC(=O)c2cc(C)on2)cc(C)n1 (racemic) [Compound 59, N-[[2-[2,6-dimethyl-4-morpholinyl]-5-(2,6-dimethyl-4-pyridinyl)-4-thiazolyl]methyl]-5-methyl-3-isoxazolecarboxamide]	1620 nM	166 °C	938%	
Cc1cc(-c2sc(N3CC(C)OC(C(F)(F)F)C3)nc2CNC(=O)CC2CC2)cc(C)n1 (racemic) [Compound 205, N-[[5-(2,6-dimethyl-4-pyridinyl)-2-[2-methyl-6-(trifluoromethyl)-4-morpholinyl]-4-thiazolyl]methyl]-cyclopropaneacetamide]	38 nM	148 °C		883%
Cc1cc(-c2sc(N3CCOC(C)C3)nc2CNC(=O)c2ccc(F)cc2C)cc(C)n1 (single isomer, unassigned) [Compound 70, N-[[5-(2,6-dimethyl-4-pyridinyl)-2-[(2S*)-2-methyl-4-morpholinyl]-4-thiazolyl]methyl]-4-fluoro-2-methyl-benzamide]	81.3 nM	185 °C		
Cc1cc(C(=O)NCc2nc(N3CCOC(C)C3)sc2-c2cc(C)nc(C)c2)on1 (single isomer, unassigned) [Compound 72, N-[[5-(2,6-dimethyl-4-pyridinyl)-2-[(2S*)-2-methyl-4-morpholinyl]-4-thiazolyl]methyl]-3-methyl-5-isoxazolecarboxamide]	2000 nM	138 °C		
Cc1cc(-c2sc(N3CCOC(C)C3)nc2CNC(=O)c2cc(C)on2)cc(C)n1 (single isomer, unassigned) [Compound 74, N-[[5-(2,6-dimethyl-4-pyridinyl)-2-[(2R*)-2-methyl-4-morpholinyl]-4-thiazolyl]methyl]-5-methyl-3-isoxazolecarboxamide]	2000 nM	167 °C		
Cc1cc(-c2sc(N3CCOC(C)C3)nc2CNC(=O)c2ccc(F)cc2C)cc(C)n1 (single isomer, unassigned) [Compound 77, N-[[5-(2,6-dimethyl-4-pyridinyl)-2-[(2R*)-2-methyl-4-morpholinyl]-4-thiazolyl]methyl]-4-fluoro-2-methyl-benzamide]	107 nM	188 °C	809%	
Cc1cc(-c2sc(N3CCOC(C)C3)nc2CNC(=O)c2cc(C)on2)cc(C)n1 (single isomer, unassigned) [Compound 79, N-[[5-(2,6-dimethyl-4-pyridinyl)-2-[(2S*)-2-methyl-4-morpholinyl)-4-thiazolyl]methyl]-5-methyl-3-isoxazolecarboxamide]	1660 nM	166 °C		
Cc1cc(-c2sc(N3CC(C)OC(C(F)(F)F)C3)nc2CNC(=O)CC2CC2)cc(C)n1 (single isomer, unassigned) [Compound 133, N-[[5-(2,6-dimethyl-4-pyridinyl)-2-[2-methyl-6-(trifluoromethyl)-4-morpholinyl]-4-thiazolyl]methyl]-cyclopropaneacetamide]	115 nM	156 °C		
Cc1cc(-c2sc(N3CC(C)OC(C(F)(F)F)C3)nc2CNC(=O)CC2CC2)cc(C)n1 (single isomer, unassigned) [Compound 206, N-[[5-(2,6-dimethyl-4-pyridinyl)-2-[2-methyl-6-(trifluoromethyl)-4-morpholinyl]-4-thiazolyl]methyl]-cyclopropaneacetamide]	43.7 nM	150 °C	985%	
Cc1cc(-c2sc(N3C[C@@H](C)O[C@@H](C)C3)nc2CNC(=O)c2ccc(Cl)c(Cl)c2)cc(C)n1 [Compound 35, 3,4-dichloro-N-[[2-[(2R,6S)-2,6-dimethyl-4-morpholinyl]-5-(2,6-dimethyl-4-pyridinyl)-4-thiazolyl]methyl]-benzamide]	132 nM	185 °C	599%	
Cc1cc(-c2sc(N3C[C@@H](C)O[C@@H](C)C3)nc2CNC(=O)c2ccc(F)c(F)c2)cc(C)n1 [Compound 36, N-[[2-[(2R,6S)-2,6-dimethyl-4-morpholinyl]-5-(2,6-dimethyl-4-pyridinyl)-4-thiazolyl]methyl]-3,4-difluoro-benzamide]	74.1 nM	189 °C	869%	
COCC(=O)NCc1nc(N2C[C@@H](C)O[C@@H](C)C2)sc1-c1cc(C)nc(C)c1 [Compound 37, N-[[2-[(2R,6S)-2,6-dimethyl-4-morpholinyl]-5-(2,6-dimethyl-4-pyridinyl)-4-thiazolyl]methyl]-2-methoxy-acetamide]		150 °C	293%	
Cc1cc(-c2sc(N3C[C@@H](C)O[C@@H](C)C3)nc2CNC(=O)c2ccc(F)c(F)c2C)cc(C)n1 [Compound 38, N-[[2-[(2R,6S)-2,6-dimethyl-4-morpholinyl]-5-(2,6-dimethyl-4-pyridinyl)-4-thiazolyl]methyl]-3,4-difluoro-2-methyl-benzamide]	5.5 nM	187 °C		
CCCC(=O)NCc1nc(N2C[C@@H](C)O[C@@H](C)C2)sc1-c1cc(C)nc(C)c1 [Compound 41, N-[[2-[(2R,6S)-2,6-dimethyl-4-morpholinyl]-5-(2,6-dimethyl-4-pyridinyl)-4-thiazolyl]methyl]-butanamide]	102 nM	155 °C	657%	
Cc1cc(-c2sc(N3C[C@@H](C)O[C@@H](C)C3)nc2CNC(=O)CC(C)C)cc(C)n1 [Compound 42, N-[[2-[(2R,6S)-2,6-dimethyl-4-morpholinyl]-5-(2,6-dimethyl-4-pyridinyl)-4-thiazolyl]methyl]-3-methyl-butanamide]	10.5 nM	184 °C	827%	
Cc1cc(-c2sc(N3C[C@@H](C)O[C@@H](C)C3)nc2CNC(=O)C2C(C)(C)C2(C)C)cc(C)n1 [Compound 43, N-[[2-[(2R,6S)-2,6-dimethyl-4-morpholinyl]-5-(2,6-dimethyl-4-pyridinyl)-4-thiazolyl]methyl]-2,2,3,3-tetramethyl-cyclopropanecarboxamide]	60.3 nM	197 °C	663%	
Cc1cc(-c2sc(N3C[C@@H](C)O[C@@H](C)C3)nc2CNC(=O)c2cccc(C(F)(F)F)c2)cc(C)n1 [Compound 44, N-[[2-[(2R,6S)-2,6-dimethyl-4-morpholinyl]-5-(2,6-dimethyl-4-pyridinyl)-4-thiazolyl]methyl]-3-(trifluoromethyl)-benzamide]	282 nM	180 °C	607%	
Cc1cc(-c2sc(N3C[C@@H](C)O[C@@H](C)C3)nc2CNC(=O)c2ccc3c(c2)OC(F)(F)O3)cc(C)n1 [Compound 45, N-[[2-[(2R,6S)-2,6-dimethyl-4-morpholinyl]-5-(2,6-dimethyl-4-pyridinyl)-4-thiazolyl]methyl]-2,2-difluoro-1,3-benzodioxole-5-carboxamide]	355 nM	175 °C	566%	
Cc1cc(-c2sc(N3C[C@@H](C)O[C@@H](C)C3)nc2CNC(=O)c2cccc3c2OC(F)(F)O3)cc(C)n1 [Compound 46, N-[[2-[(2R,6S)-2,6-dimethyl-4-morpholinyl]-5-(2,6-dimethyl-4-pyridinyl)-4-thiazolyl]methyl]-2,2-difluoro-1,3-benzodioxole-4-carboxamide]	331 nM	185 °C	610%	
Cc1cc(-c2sc(N3C[C@@H](C)O[C@@H](C)C3)nc2CNC(=O)CC2CCC2)cc(C)n1 [Compound 49, N-[[2-[(2R,6S)-2,6-dimethyl-4-morpholinyl]-5-(2,6-dimethyl-4-pyridinyl)-4-thiazolyl]methyl]-cyclobutaneacetamide]	26.3 nM	153 °C		
Cc1cc(-c2sc(N3C[C@@H](C)O[C@@H](C)C3)nc2CNC(=O)CCC2CC2)cc(C)n1 [Compound 50, N-[[2-[(2R,6S)-2,6-dimethyl-4-morpholinyl]-5-(2,6-dimethyl-4-pyridinyl)-4-thiazolyl]methyl]-cyclopropanepropanamide]	66.1 nM	168 °C	953%	
Cc1cc(-c2sc(N3CCOC[C@@H]3C)nc2CNC(=O)C(C)C)cc(C)n1 [Compound 188, N-[[5-(2,6-dimethyl-4-pyridinyl)-2-[(3S)-3-methyl-4-morpholinyl]-4-thiazolyl]methyl]-2-methyl-propanamide]	5010 nM		685%	
Cc1cc(-c2sc(N3C[C@@H](C)O[C@@H](C(F)(F)F)C3)nc2CNC(=O)CC2CC2)cc(C)n1 [Compound 203, N-[[5-(2,6-dimethyl-4-pyridinyl)-2-[(2R,6R)-2-methyl-6-(trifluoromethyl)-4-morpholinyl]-4-thiazolyl]methyl]-cyclopropaneacetamide]	7.24 nM			
Cc1cc(-c2sc(N3C[C@@H](C(F)(F)F)O[C@@H](C)C3)nc2CNC(=O)CC2CC2)cc(C)n1 [Compound 204, N-[[5-(2,6-dimethyl-4-pyridinyl)-2-[(2S,6S)-2-methyl-6-(trifluoromethyl)-4-morpholinyl]-4-thiazolyl]methyl]-cyclopropaneacetamide]	31.6 nM		392%	
